Target: B-Raf (V600E)-kinase (Homo sapiens (Human), UniProt P15056, V600E)
Test: Kinase test B-RAF (V600E)
Assay type: biochemical
Conditions: B-RAF (V600E) kinase test, 250 μM ATP
How it was run: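 Read-out is DELFIA europium TRF of phospho-MEK (Ser217/221) on biotinylated MEK1 bound to streptavidin plates, IC50 from dose-response. Reaction ran 60 min at RT with 250 μM ATP, after a 24 h RT preincubation of compound with B-Raf (V600E) kinase, 5% DMSO final.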

Chain of B-Raf (V600E)-kinase (P15056 whole entry V600E): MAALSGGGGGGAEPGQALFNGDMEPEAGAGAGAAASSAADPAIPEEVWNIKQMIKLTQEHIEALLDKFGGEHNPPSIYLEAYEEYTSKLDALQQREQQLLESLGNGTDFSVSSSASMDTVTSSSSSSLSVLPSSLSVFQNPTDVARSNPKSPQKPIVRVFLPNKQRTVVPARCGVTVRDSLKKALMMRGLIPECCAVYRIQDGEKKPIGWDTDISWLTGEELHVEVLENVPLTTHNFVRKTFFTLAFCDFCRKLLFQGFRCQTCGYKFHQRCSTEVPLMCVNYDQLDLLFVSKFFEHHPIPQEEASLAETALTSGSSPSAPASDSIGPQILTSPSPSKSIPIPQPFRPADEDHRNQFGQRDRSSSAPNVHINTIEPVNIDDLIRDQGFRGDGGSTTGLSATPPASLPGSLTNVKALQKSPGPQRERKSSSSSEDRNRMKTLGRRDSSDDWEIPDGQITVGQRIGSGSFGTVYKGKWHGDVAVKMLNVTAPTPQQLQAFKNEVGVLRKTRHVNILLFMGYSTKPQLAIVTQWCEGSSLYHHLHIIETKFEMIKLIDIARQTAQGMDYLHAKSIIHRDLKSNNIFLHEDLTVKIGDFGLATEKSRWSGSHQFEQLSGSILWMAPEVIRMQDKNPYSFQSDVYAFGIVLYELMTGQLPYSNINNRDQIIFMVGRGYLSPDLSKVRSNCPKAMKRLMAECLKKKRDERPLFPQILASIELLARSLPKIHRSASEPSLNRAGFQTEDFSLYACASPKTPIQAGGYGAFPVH

Row | SMILES | IC50 [nM]
1 | Cc1ccc(C(=O)Nc2cccc(OC(F)(F)F)c2)cc1Nc1ncnc2cnc(N3CCCN(C)CC3)nc12 [III-222] | < 1
2 | Cc1ccc(C(=O)Nc2cccc(C(C)(C)C)c2)cc1Nc1ncnc2cnc(N3CCCN(C)CC3)nc12 [III-224] | < 1
3 | COc1ccc(C(C)(C)C)cc1NC(=O)c1ccc(C)c(Nc2ncnc3cnc(N4CCCN(C)CC4)nc23)c1 [III-225] | 2
4 | Cc1ccc(C(=O)NCc2ccc(C(C)(C)C)cc2)cc1Nc1ncnc2cnc(N3CCN(C)CC3)nc12 [III-226] | 101
5 | Cc1ccc(C(=O)NCc2ccc(C(F)(F)F)cc2)cc1Nc1ncnc2cnc(N3CCN(C)CC3)nc12 [III-227] | 41
6 | Cc1ccc(C(=O)Nc2cccc(C(C)(C)C)c2)cc1Nc1ncnc2cnc(N3CCN(C)CC3)nc12 [III-229] | 1
7 | COc1ccc(C(C)(C)C)cc1NC(=O)c1ccc(C)c(Nc2ncnc3cnc(N4CCN(C)CC4)nc23)c1 [III-230] | 6
8 | Cc1ccc(C(=O)Nc2ccc(F)c(C(F)(F)F)c2)cc1Nc1ncnc2cnc(N(C)CCN(C)C)nc12 [III-231] | 29
9 | Cc1ccc(C(=O)Nc2cccc(C(F)(F)F)c2)cc1Nc1ncnc2cnc(N(C)CCN(C)C)nc12 [III-232] | 4
10 | Cc1ccc(C(=O)NCc2ccc(C(C)(C)C)cc2)cc1Nc1ncnc2cnc(N(C)CCN(C)C)nc12 [III-233] | 571
11 | COc1ccc(C(F)(F)F)cc1NC(=O)c1ccc(C)c(Nc2ncnc3cnc(N(C)CCN(C)C)nc23)c1 [III-234] | 15
12 | Cc1ccc(C(=O)Nc2ccc(Cl)c(C(F)(F)F)c2)cc1Nc1ncnc2cnc(N(C)CCN(C)C)nc12 [III-235] | 2
13 | Cc1ccc(C(=O)NCc2ccc(C(F)(F)F)cc2)cc1Nc1ncnc2cnc(N(C)CCN(C)C)nc12 [III-236] | 1120
14 | Cc1ccc(C(=O)Nc2cccc(OC(F)(F)F)c2)cc1Nc1ncnc2cnc(N(C)CCN(C)C)nc12 [III-237] | 2
15 | Cc1ccc(C(=O)Nc2cccc(N(C)C)c2)cc1Nc1ncnc2cnc(N(C)CCN(C)C)nc12 [III-238] | 87
16 | Cc1ccc(C(=O)Nc2cccc(C(C)(C)C)c2)cc1Nc1ncnc2cnc(N(C)CCN(C)C)nc12 [III-239] | 6
17 | COc1ccc(C(C)(C)C)cc1NC(=O)c1ccc(C)c(Nc2ncnc3cnc(N(C)CCN(C)C)nc23)c1 [III-240] | 4
18 | Cc1ccc(C(=O)NCc2ccc(C(C)(C)C)cc2)cc1Nc1ncnc2cnc(N3CC[C@@H](F)C3)nc12 [III-241] | 48
19 | Cc1ccc(C(=O)NCc2ccc(C(F)(F)F)cc2)cc1Nc1ncnc2cnc(N3CC[C@@H](F)C3)nc12 [III-242] | 19
20 | Cc1ccc(C(=O)Nc2cccc(N(C)C)c2)cc1Nc1ncnc2cnc(N3CC[C@@H](F)C3)nc12 [III-243] | < 1
21 | Cc1ccc(C(=O)Nc2cccc(C(C)(C)C)c2)cc1Nc1ncnc2cnc(N3CC[C@@H](F)C3)nc12 [III-244] | < 1
22 | Cc1ccc(C(=O)NCc2ccc(C(C)(C)C)cc2)cc1Nc1ncnc2cnc(N3CCCCC3)nc12 [III-245] | 460
23 | Cc1ccc(C(=O)NCc2ccc(C(F)(F)F)cc2)cc1Nc1ncnc2cnc(N3CCCCC3)nc12 [III-246] | 29
24 | Cc1ccc(C(=O)Nc2cccc(N(C)C)c2)cc1Nc1ncnc2cnc(N3CCCCC3)nc12 [III-247] | 1
25 | Cc1ccc(C(=O)Nc2cccc(C(C)(C)C)c2)cc1Nc1ncnc2cnc(N3CCCCC3)nc12 [III-248] | 2

Row | SMILES | IC50 [nM]
26 | COc1ccc(C(C)(C)C)cc1NC(=O)c1ccc(C)c(Nc2ncnc3cnc(N4CCCCC4)nc23)c1 [III-249] | 10
27 | Cc1ccc(C(=O)NCc2ccc(C(F)(F)F)cc2)cc1Nc1ncnc2cnc(N3CCCC3)nc12 [III-250] | 40
28 | Cc1ccc(C(=O)Nc2cccc(S(=O)(=O)N(C)C)c2)cc1Nc1ncnc2cnc(N3CCCN(C)CC3)nc12 [III-251] | 19
29 | Cc1ccc(C(=O)Nc2ccc3c(c2)C(C)(C)C(=O)N3CCN2CCCC2)cc1Nc1ncnc2cnc(N3CCCN(C)CC3)nc12 [III-252] | 8
30 | Cc1ccc(C(=O)Nc2ccccc2)cc1Nc1ncnc2cnc(N3CCCCC3)nc12 [III-253] | 269
31 | Cc1ccc(C(=O)NC2CC2)cc1Nc1ncnc2cnc(N3CCCCC3)nc12 [III-254] | 2000
32 | Cc1ccc(C(=O)NCC2CCOC2)cc1Nc1ncnc2cnc(N3CCCC3)nc12 (centres unmarked) [III-256] | 15000
33 | Cc1ccc(C(=O)NCc2cccc(C(F)(F)F)c2)cc1Nc1ncnc2cnc(N3CCCC3)nc12 [III-257] | 61
34 | Cc1ccc(C(=O)NC2CCCCC2)cc1Nc1ncnc2cnc(N3CCCC3)nc12 [III-258] | 15000
35 | Cc1ccc(C(=O)Nc2ccccc2)cc1Nc1ncnc2cnc(N3CCCC3)nc12 [III-259] | 505
36 | Cc1ccc(C(=O)NC2CC2)cc1Nc1ncnc2cnc(N3CCCC3)nc12 [III-260] | 2000
37 | Cc1ccc(C(=O)Nc2cc(C(F)(F)F)ccn2)cc1Nc1ncnc2cnc(N3CCN(C)CC3)nc12 [III-261] | < 1
38 | COc1ccc(C(F)(F)F)cc1NC(=O)c1ccc(C)c(Nc2ncnc3cnc(N4CCCCC4)nc23)c1 [III-262] | 9
39 | Cc1ccc(C(=O)Nc2cccc(N(C)C)c2)cc1Nc1ncnc2cnc(N3CCNCC3)nc12 [III-263] | 15
40 | Cc1ccc(C(=O)Nc2nnc(C(F)(F)F)s2)cc1Nc1ncnc2cnc(N3CCCC3)nc12 [III-264] | 2600
41 | Cc1ccc(C(=O)Nc2ccc(F)c(C(F)(F)F)c2)cc1Nc1ncnc2cnc(N3CCCC3)nc12 [III-265] | 4
42 | Cc1ccc(C(=O)Nc2cccc(C(F)(F)F)c2)cc1Nc1ncnc2cnc(N3CCCC3)nc12 [III-266] | 1
43 | Cc1ccc(C(=O)NCc2ccc(C(C)(C)C)cc2)cc1Nc1ncnc2cnc(N3CCCC3)nc12 [III-267] | 836
44 | COc1ccc(C(F)(F)F)cc1NC(=O)c1ccc(C)c(Nc2ncnc3cnc(N4CCCC4)nc23)c1 [III-268] | 120
45 | Cc1ccc(C(=O)Nc2ccc(Cl)c(C(F)(F)F)c2)cc1Nc1ncnc2cnc(N3CCCC3)nc12 [III-269] | 33
46 | Cc1ccc(C(=O)Nc2cccc(OC(F)(F)F)c2)cc1Nc1ncnc2cnc(N3CCCC3)nc12 [III-270] | 20
47 | Cc1ccc(C(=O)Nc2cccc(N(C)C)c2)cc1Nc1ncnc2cnc(N3CCCC3)nc12 [III-271] | 10
48 | Cc1ccc(C(=O)Nc2cccc(C(C)(C)C)c2)cc1Nc1ncnc2cnc(N3CCCC3)nc12 [III-272] | 2
49 | Cc1ccc(C(=O)Nc2ccc(C#N)c(C(F)(F)F)c2)cc1Nc1ncnc2cnc(N3CCCC3)nc12 [III-273] | 31
50 | Cc1ccc(C(=O)Nc2cccc(S(=O)(=O)N(C)C)c2)cc1Nc1ncnc2cnc(N3CCCC3)nc12 [III-274] | 3

Row | SMILES | IC50 [nM]
51 | Cc1ccc(C(=O)Nc2cc(C(F)(F)F)ccn2)cc1Nc1ncnc2cnc(N3CCCC3)nc12 [III-275] | 2
52 | Cc1ccc(C(=O)Nc2cccc(C(C)(C)C#N)c2)cc1Nc1ncnc2cnc(N3CCCC3)nc12 [III-276] | 6
53 | COc1c(NC(=O)c2ccc(C)c(Nc3ncnc4cnc(N5CCCC5)nc34)c2)cc(C(C)(C)C)cc1NS(C)(=O)=O [III-277] | 23
54 | Cc1ccc(C(=O)NCc2cccc(C(C)(C)C)c2)cc1Nc1ncnc2cnc(N3CCCC3)nc12 [III-278] | 88
55 | Cc1ccc(C(=O)Nc2cc(C(F)(F)F)ccn2)cc1Nc1ncnc2cnc(N(C)CCN(C)C)nc12 [III-279] | 6
56 | Cc1ccc(C(=O)Nc2nnc(C(F)(F)F)s2)cc1Nc1ncnc2cnc(N(C)CCN(C)C)nc12 [III-280] | 10000
57 | Cc1ccc(C(=O)Nc2ccc(C#N)c(C(F)(F)F)c2)cc1Nc1ncnc2cnc(N(C)CCN(C)C)nc12 [III-281] | 5
58 | Cc1ccc(C(=O)Nc2nnc(C(F)(F)F)s2)cc1Nc1ncnc2cnc(N3CCCN(C)CC3)nc12 [III-282] | 1400
59 | Cc1ccc(C(=O)Nc2cc(C(F)(F)F)ccn2)cc1Nc1ncnc2cnc(N3CCCN(C)CC3)nc12 [III-283] | 3
60 | Cc1ccc(C(=O)Nc2ccc(C#N)c(C(F)(F)F)c2)cc1Nc1ncnc2cnc(N3CCCN(C)CC3)nc12 [III-284] | 3
61 | Cc1ccc(C(=O)Nc2nnc(C(F)(F)F)s2)cc1Nc1ncnc2cnc(N3CC[C@H](F)C3)nc12 [III-285] | 274
62 | Cc1ccc(C(=O)Nc2ccc(F)c(C(F)(F)F)c2)cc1Nc1ncnc2cnc(N3CC[C@H](F)C3)nc12 [III-286] | 3
63 | Cc1ccc(C(=O)Nc2cccc(C(F)(F)F)c2)cc1Nc1ncnc2cnc(N3CC[C@H](F)C3)nc12 [III-287] | 1
64 | COc1ccc(C(F)(F)F)cc1NC(=O)c1ccc(C)c(Nc2ncnc3cnc(N4CC[C@H](F)C4)nc23)c1 [III-288] | 2
65 | Cc1ccc(C(=O)Nc2ccc(Cl)c(C(F)(F)F)c2)cc1Nc1ncnc2cnc(N3CC[C@H](F)C3)nc12 [III-289] | 13
66 | Cc1ccc(C(=O)Nc2cccc(OC(F)(F)F)c2)cc1Nc1ncnc2cnc(N3CC[C@H](F)C3)nc12 [III-290] | 1
67 | COc1ccc(C(C)(C)C)cc1NC(=O)c1ccc(C)c(Nc2ncnc3cnc(N4CC[C@H](F)C4)nc23)c1 [III-291] | 21
68 | Cc1ccc(C(=O)Nc2ccc(C#N)c(C(F)(F)F)c2)cc1Nc1ncnc2cnc(N3CC[C@H](F)C3)nc12 [III-292] | 36
69 | Cc1ccc(C(=O)Nc2cccc(S(=O)(=O)N(C)C)c2)cc1Nc1ncnc2cnc(N3CC[C@H](F)C3)nc12 [III-293] | 7
70 | Cc1ccc(C(=O)Nc2cccc(C(C)(C)C)c2)cc1Nc1ncnc2cnc(N3CCOCC3)nc12 [III-294] | 1
71 | COc1c(NC(=O)c2ccc(C)c(Nc3ncnc4cnc(N5CC[C@H](F)C5)nc34)c2)cc(C(C)(C)C)cc1NS(C)(=O)=O [III-295] | 17
72 | Cc1ccc(C(=O)Nc2nnc(C(F)(F)F)s2)cc1Nc1ncnc2cnc(N3CCN(C)CC3)nc12 [III-296] | 198
73 | Cc1ccc(C(=O)Nc2ccc(F)c(C(F)(F)F)c2)cc1Nc1ncnc2cnc(N3CCN(C)CC3)nc12 [III-297] | 1
74 | Cc1ccc(C(=O)Nc2cccc(C(F)(F)F)c2)cc1Nc1ncnc2cnc(N3CCN(C)CC3)nc12 [III-298] | 1
